Where two headings read alike, the source gives them in different places. Marks after values point to notes of the source that are not given here. *1 amine or outer side, *2 acyl side, *3 side chain or, on linkers, in order; H or OH if unused. Where a SMILES comes first, the peptide text is derived from it. Bridges are numbered along the chain shown (N, C = ends). [ ]: non-standard residue; d: D form. The star is where a group is joined. Leu(3R-OH,Nα-propionyl) = CCC(=O)N[C@H](C(=O)*)[C@H](O)C(C)C; X1 = CC(C)[C@@H](O[*:3])[C@H](N[*:1])C(=O)[*:2]; NMeT = CN[C@H](C(=O)O)[C@@H](C)O; dPhLac = O=C(O)[C@H](O)Cc1ccccc1; NMeA = CN[C@@H](C)C(=O)O; NMeDha = C=C(NC)C(=O)O
Tests used:
CHO-K1 hD2longR cells = type: cell-based, human
hD2longR [1] = molecular target: T1, hD2longR (Homo sapiens, UniProt P14416); type: cell-based
hD2longR [2] = molecular target: T1, hD2longR; details: cited from earlier work
[3] = system: untransfected CHO-K1 cells; assay: DMR off-target test in untransfected CHO-K1 cells
D2R = details: cited from earlier work; for Emax, [35S]GTPγS binding: relative to dopamine
[4] = molecular target: T2, human dopamine D2long receptor (Homo sapiens, UniProt P14416)
[5] = molecular target: T2, human dopamine D2long receptor; remark: listed apart in the source
D2long receptors = details: read-out: EC50 (DMR); cited from earlier work
[6] = molecular target: T2, human dopamine D2long receptor; assay: cell-based; details: CHO-K1, read-out: DMR Emax (%)
[7] = CHO-K1 hD2longR cells pretreated with the agent (PTX, CTX about 20 h; FR900359 2 h; forskolin 1 μM 40 min; EGTA 2 mM in assay buffer)

T2 sequence (P14416 whole entry): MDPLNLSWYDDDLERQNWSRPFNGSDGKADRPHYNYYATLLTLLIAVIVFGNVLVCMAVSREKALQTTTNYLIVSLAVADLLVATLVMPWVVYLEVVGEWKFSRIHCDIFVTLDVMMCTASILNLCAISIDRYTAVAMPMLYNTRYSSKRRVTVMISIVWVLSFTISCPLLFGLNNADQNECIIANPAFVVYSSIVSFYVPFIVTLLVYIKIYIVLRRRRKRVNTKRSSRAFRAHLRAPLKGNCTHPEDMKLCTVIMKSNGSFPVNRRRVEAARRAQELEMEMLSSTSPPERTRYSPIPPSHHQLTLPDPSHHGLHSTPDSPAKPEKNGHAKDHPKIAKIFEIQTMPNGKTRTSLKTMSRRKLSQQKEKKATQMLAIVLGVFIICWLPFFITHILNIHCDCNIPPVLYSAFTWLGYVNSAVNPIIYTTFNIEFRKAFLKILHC
T1 sequence (P14416 whole entry): as above

C=C1C(=O)N[C@@H](C)C(=O)N(C)[C@@H](C)C(=O)N[C@@H]([C@H](OC(=O)[C@@H](NC(=O)CC)[C@H](O)C(C)C)C(C)C)C(=O)N(C)[C@@H]([C@@H](C)OC)C(=O)O[C@H](C(C)C)[C@H](NC(C)=O)C(=O)O[C@H](Cc2ccccc2)C(=O)N1C [FR900359] (Ac-[X1][dPhLac][NMeDha]A[NMeA][X1](Leu(3R-OH,Nα-propionyl))[NMeT](Me); ester 1-C)
DMR response induced by the agent alone in CHO-K1 hD2longR cells (CHO-K1 hD2longR cells): did not induce a DMR response
effect on the quinpirole induced DMR response (CHO-K1 hD2longR cells; [7]): did not show a pronounced effect

C=C[C@@]1(C)CC(=O)[C@]2(O)[C@@]3(C)[C@@H](O)CCC(C)(C)[C@@H]3[C@H](O)[C@H](OC(C)=O)[C@@]2(C)O1 [forskolin]
effect on receptor expression ([3H]N-methylspiperone binding) (hD2longR [1]; forskolin 1 μM for 40 min): did not exhibit a marked effect on the receptor expression
effect on receptor expression ([3H]N-methylspiperone binding) (hD2longR [1]; forskolin 1 μM for 20 h): strong increase in specific radioligand binding
effect on the quinpirole induced DMR response (CHO-K1 hD2longR cells; [7]): increase in quinpirole efficacy
time of minimum of the forskolin DMR signal (CHO-K1 hD2longR cells; forskolin alone): about 5 min
DMR response induced by the agent alone in CHO-K1 hD2longR cells (CHO-K1 hD2longR cells; without quinpirole, thapsigargin in EGTA (2 mM) containing buffer, forskolin 1 μM): negative DMR signal

cholera toxin [CTX]
effect on receptor expression ([3H]N-methylspiperone binding) (hD2longR [1]): slight up-regulation
DMR response induced by the agent alone in CHO-K1 hD2longR cells (CHO-K1 hD2longR cells): did not induce a DMR response
effect on the quinpirole induced DMR response (CHO-K1 hD2longR cells): apparent increase in quinpirole efficacy

R-(−)-apomorphine
β-arrestin2 recruitment Emax (%) (hD2longR [2]): 87 ± 3^a %
DMR response in untransfected CHO-K1 cells (off-target activity) [3]: did not elicit a DMR signal
pEC50, [35S]GTPγS binding (D2R; ref 42): 7.66
pEC50, [35S]GTPγS binding (D2R; ref 49): 6.76
Emax, [35S]GTPγS binding (D2R; ref 42): 53%
Emax, [35S]GTPγS binding (D2R; ref 49): 90%
DMR Emax (%) [4]: 102 ± 5%
quality of action in the DMR assay (full / partial agonist) [4]: full agonist

CCN1CCC[C@H]1CNC(=O)c1cc(S(N)(=O)=O)ccc1OC [S-(−)-sulpiride]
Hill Slope of inhibition curve ([5]; antagonist mode, versus 30 nM quinpirole): −1.18

NCCc1ccc(O)c(O)c1 [Dopamine, dopamine]
EC50 (D2long receptors): 11 nM

O=C(CCCN1CCC(O)(c2ccc(Cl)cc2)CC1)c1ccc(F)cc1 [Haloperidol, haloperidol]
DMR response in untransfected CHO-K1 cells (off-target activity) [3]: slight negative DMR response

C/C=C(/C)C(=O)O[C@H]1C(C)=C2[C@H]([C@@H]1OC(=O)CCCCCCC)[C@@](C)(OC(C)=O)C[C@H](OC(=O)CCC)[C@@]1(O)[C@H]2OC(=O)[C@@]1(C)O [thapsigargin]
DMR response induced by the agent alone in CHO-K1 hD2longR cells (CHO-K1 hD2longR cells): rapidly decreasing negative DMR signal
time to plateau of the thapsigargin-induced negative DMR signal (CHO-K1 hD2longR cells; EGTA containing assay buffer): approximately 15 min
effect on the quinpirole induced DMR response (CHO-K1 hD2longR cells; thapsigargin (1 μM or 2 μM, 20 min) in combination with EGTA (2 mM)): completely abrogated the quinpirole-induced response

pertussis toxin [PTX]
DMR response induced by the agent alone in CHO-K1 hD2longR cells (CHO-K1 hD2longR cells): did not induce a DMR response
effect on the quinpirole induced DMR response (CHO-K1 hD2longR cells; [7]): concentration-dependent decrease in the DMR response

CNc1cc(OC)c(C(=O)NC2CCN(Cc3ccccc3)C2C)cc1Cl (centres unmarked) [Nemonapride, nemonapride]
DMR response in untransfected CHO-K1 cells (off-target activity) [3]: slight negative DMR response
Hill Slope of inhibition curve [5]: −1.95

O=C(O)CN(CCOCCOCCN(CC(=O)O)CC(=O)O)CC(=O)O [EGTA]
effect on the quinpirole induced DMR response (CHO-K1 hD2longR cells; [7]): completely abrogated the quinpirole-induced response

CCCN[C@H]1CCc2nc(N)sc2C1 [Pramipexole, pramipexole]
EC50 (D2long receptors): 8.7 nM
quality of action in the DMR assay (full / partial agonist) [4]: full agonists
Emax [6]: 97 ± 0.1%

Source: paper PMC9187652, “Investigating the ligand agonism and antagonism at the D2long receptor by dynamic mass redistribution” (Scientific Reports, 2022)
